“Also recorded” adds a separate entry of the source. Where two headings read alike, the source gives them in different places.
Legend:
[1] = biological target: T1, recombinant human protein tyrosine phosphate 1B (PTP1B, EC 3. 1. 3. 48) (Homo sapiens, UniProt P18031); experiment: biochemical; assay type: biochemical; parameters: Vmax: unit not given here; conditions: for PTP1B type of inhibition: Lineweaver–Burk / secondary plots; for Vmax / Kik/Kiv: pNPP; for Kik/Kiv: Yang's method
T1 sequence (P18031 1-435): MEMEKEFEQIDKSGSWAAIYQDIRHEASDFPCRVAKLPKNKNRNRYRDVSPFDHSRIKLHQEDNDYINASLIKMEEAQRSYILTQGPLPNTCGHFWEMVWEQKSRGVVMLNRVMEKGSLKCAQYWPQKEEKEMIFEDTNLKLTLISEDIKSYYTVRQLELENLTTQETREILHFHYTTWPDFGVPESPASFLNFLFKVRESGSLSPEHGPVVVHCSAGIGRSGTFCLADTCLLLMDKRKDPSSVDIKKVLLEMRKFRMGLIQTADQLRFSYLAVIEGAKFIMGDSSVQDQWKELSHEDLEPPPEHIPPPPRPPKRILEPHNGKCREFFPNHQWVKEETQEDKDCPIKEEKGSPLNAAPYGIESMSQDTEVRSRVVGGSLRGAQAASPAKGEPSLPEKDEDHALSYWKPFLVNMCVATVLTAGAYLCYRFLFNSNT
Experimental: The PTP1B inhibitory assay was carried out using a slight modification to literature reported method. p-nitrophenyl phosphate (pNPP) was used as a substrate for the measurement of enzyme activity. Buffer solution consisted of 25 mM Tris–HCl (pH 7.5), 2 mM β-mercaptoethanol, 1 mM (ethylenediaminetetraacetic acid) EDTA, and 1 mM dithiothreitol (DTT). The assay was performed by adding 10 μL test compound solution to 20 μL of enzyme (1 μg/ml), and then mixing with 40 μL of 4 mM pNPP in 130 μL of the given buffer using 96 well plate at 37 °C for 10 min. […] Lineweaver–Burk and Dixon plots methods were used to determine kinetic parameters. Sigma Plot (SPCC Inc., Chicago, IL) was used to calculate these parameters.
(§1) Lineweaver–Burk plots were used for the analysis of enzyme’s inhibitory kinetics, caused by the tested bioactive compounds, and its comparison was performed with the data collected in the absence of inhibitors. Steady-state rates were determined at different inhibitor concentrations and at changing concentrations of substrate, then enzyme inhibition mechanism and related kinetic parameters were determined. Where applicable, KI and KIS, the two inhibition constants, when inhibitor binds with either free enzyme or the complex of enzyme–substrate, were derived from secondary plots of the slopes of the straight lines and vertical intercept (1/V^appmax), versus inhibitors concentrations. Equations (1)–(3) are the representatives equations for derivation of KI and KIS, respectively.
(§2) To determine enzyme inhibition parameters, an experiment was performed having substrate concentrations range (pNPP; 0.4–1.6 mM, pNPG; 0.075–0.3 mM), and different concentrations of tested compound, as indicated. To find out each curve parameter, a nonlinear regression program was used for data analysis using sigma Plot. Similarly Km and Vmax were derived from Lineweaver–Burk plots. Kik and Kiv rate constants were calculated according to Equations (4) and (5) proposed by Yang’s method. While Excel was used for linear regression analysis. (4) Km=Km,0×(1+[I]/Kik) (5) Vm=[…]
First of all, the individual isolated constituents (1–8) from P. tomentosa fruits were tested in an in vitro PTP1B inhibition assay, using recombinant human protein tyrosine […] 1B (EC 3. 1. 3. 48)^1.

[2] = biological target: α-glucosidase (EC 3.2.1.20. from Baker's Yeast) (Saccharomyces cerevisiae, UniProt P53341); experiment: α-Glucosidase enzymatic assay (pNPG hydrolysis) and kinetic analysis; assay type: biochemical; conditions: for α-Glucosidase type of inhibition: Lineweaver–Burk and Dixon plots; for Vmax / Kik/Kiv: α-glucosidase, pNPG; for Kik/Kiv: Yang's method
Sequence of α-glucosidase (EC 3.2.1.20. from Baker's Yeast) (P53341 whole entry): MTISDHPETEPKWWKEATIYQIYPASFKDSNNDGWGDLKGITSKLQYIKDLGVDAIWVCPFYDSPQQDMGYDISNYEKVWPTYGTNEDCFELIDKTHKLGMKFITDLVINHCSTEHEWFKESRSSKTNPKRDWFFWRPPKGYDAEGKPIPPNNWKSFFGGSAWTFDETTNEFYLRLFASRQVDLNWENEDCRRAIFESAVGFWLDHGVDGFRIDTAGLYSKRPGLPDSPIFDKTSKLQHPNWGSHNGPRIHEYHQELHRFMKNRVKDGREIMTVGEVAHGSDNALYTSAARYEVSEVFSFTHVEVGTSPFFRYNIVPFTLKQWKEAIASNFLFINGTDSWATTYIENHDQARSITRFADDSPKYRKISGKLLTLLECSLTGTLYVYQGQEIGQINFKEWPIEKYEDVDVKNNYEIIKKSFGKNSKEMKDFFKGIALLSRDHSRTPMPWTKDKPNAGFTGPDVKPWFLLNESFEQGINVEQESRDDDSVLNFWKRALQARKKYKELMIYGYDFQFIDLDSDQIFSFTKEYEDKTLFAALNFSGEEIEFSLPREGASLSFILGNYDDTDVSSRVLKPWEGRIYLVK
Experimental: The α-glucosidase inhibitory activity was measured using reported experimental method with slight modifications. Phosphate buffer [50 mM potassium phosphate (pH 6.8)] was used for the whole assay. p-nitrophenyl-α-D-glucopyranoside (pNPG) was used as substrate, whose concentration 1.2 mM was prepared in phosphate buffer. Stock solution of α-glucosidase (EC 3.2.1.20. from Baker’s Yeast) containing 0.45 units of enzyme was also prepared in phosphate buffer. DMSO was used as a solvent for dissolving the test compounds, which were then diluted to their respective concentrations. Enzymatic assay was performed by mixing 40 μl of substrate (final concentration 0.15 mM) with 10 μl of inhibitors/vehicle, 130 μl phosphate buffer and 20 μl of enzyme in 96 well plate. As a result of the catalytic reaction, p-nitrophenol was produced as a reaction product which was subsequently measured using spectra max M3 multi-mode microplate reader (Molecular Devices) at 37 °C, at 405 nm for 15 min. […] The experiments were performed in triplicate.
as §1, §2

[3] = PTP1B, secondary plots, read-out: KI (inhibitor binds with free enzyme)
[4] = from Dixon plots, read-out: PTP1B Ki (inhibition constant)
[5] = pNPP substrate, triplicate, read-out: PTP1B IC50

Question: Which “PTP1B type of inhibition” value [1] does the source give for `COc1cc([C@H]2Oc3cc(O)c(C/C=C(\C)CCC=C(C)C)c(O)c3C(=O)[C@@H]2O)ccc1O` [Compound 6, 3′-O-methyldiplacol] here?
Answer: Mixed TypeⅠ; also recorded: mixed type Ι; also recorded: Mixed Type I

Question: And the “KIS (inhibitor binds with enzyme-substrate complex)” value ([1]; PTP1B, secondary plots)?
Answer: 5.2 ± 0.2 µM

Question: And the Ki [1, 3]?
Answer: 3.5 ± 0.2 µM

Question: What about the Ki [1, 4] of the same compound?
Answer: 3.8 ± 0.3 µM

Question: And the IC50 [1, 5]?
Answer: 4.9 ± 0.5 µM

Question: And the “α-Glucosidase type of inhibition” value [2]?
Answer: Noncompetitive

Question: Which IC50 ([2]; pNPG substrate, triplicate) does the source give for `[Na+].[Na+].[Na+].[O]=[V]([O-])([O-])[O-]` [NaVO4, reference compound] here?
Answer: > 200 µM

Question: Which results are given for `COc1ccc([C@@H]2CC(=O)c3c(cc(O)c(C/C=C(\C)CCC=C(C)C)c3O)O2)cc1O` [Compound 3, 4′-O-methyldiplacone]?
Answer: PTP1B type of inhibition [1]: Mixed TypeⅠ; also recorded: Mixed Type I; KIS (inhibitor binds with enzyme-substrate complex) ([1]; PTP1B, secondary plots): 10.1 ± 0.4 µM; Ki [1, 3]: 5.7 ± 0.3 µM; Ki [1, 4]: 8.1 ± 0.6 µM; IC50 [1, 5]: 7.8 ± 0.6 µM; α-Glucosidase type of inhibition [2]: Noncompetitive

Question: For `COc1cc([C@@H]2CC(=O)c3c(cc(O)c(C/C=C(\C)CCC=C(C)C)c3O)O2)ccc1O` [Compound 2, 3′-O-methyldiplacone], which “PTP1B type of inhibition” value [1] is on record?
Answer: Mixed TypeⅠ; also recorded: Mixed Type I

Question: And the “KIS (inhibitor binds with enzyme-substrate complex)” value ([1]; PTP1B, secondary plots)?
Answer: 3.7 ± 0.2 µM

Question: What about the Ki [1, 3] of the same compound?
Answer: 2.6 ± 0.1 µM

Question: What about the Ki [1, 4] of the same compound?
Answer: 3.2 ± 0.2 µM

Question: What about the IC50 [1, 5] of the same compound?
Answer: 3.9 ± 0.3 µM

Question: What about the “α-Glucosidase type of inhibition” value [2] of the same compound?
Answer: Noncompetitive

Question: How did the “PTP1B type of inhibition” value [1] turn out when `COc1c(O)cc([C@H]2Oc3cc(O)c(C/C=C(\C)CCC=C(C)C)c(O)c3C(=O)[C@@H]2O)cc1O` [Compound 8] was run?
Answer: Mixed TypeⅠ; also recorded: Mixed Type I

Question: And the “KIS (inhibitor binds with enzyme-substrate complex)” value ([1]; PTP1B, secondary plots)?
Answer: 10.3 ± 0.5 µM

Question: And the Ki [1, 3]?
Answer: 5.9 ± 0.3 µM

Question: What about the Ki [1, 4] of the same compound?
Answer: 6.2 ± 0.4 µM

Question: And the IC50 [1, 5]?
Answer: 6.6 ± 0.5 µM

Question: And the “α-Glucosidase type of inhibition” value [2]?
Answer: Noncompetitive

Question: Which results are given for `COc1cc([C@@H]2CC(=O)c3c(cc(O)c(C/C=C(\C)CCC=C(C)C)c3O)O2)cc(OC)c1O` [Compound 5, 3′-O-Methyl-5′-O-methyldiplacone]?
Answer: PTP1B type of inhibition [1]: Mixed TypeⅠ; also recorded: Mixed Type I; KIS (inhibitor binds with enzyme-substrate complex) ([1]; PTP1B, secondary plots): 4.6 ± 0.2 µM; Ki [1, 3]: 2.8 ± 0.2 µM; Ki [1, 4]: 3.5 ± 0.3 µM; IC50 [1, 5]: 3.8 ± 0.3 µM; α-Glucosidase type of inhibition [2]: Noncompetitive

Question: For `COc1c(O)cc(C2CC(=O)c3c(cc(O)c(C/C=C(\C)CCC=C(C)C)c3O)O2)cc1O` (stereo not drawn) [Compound 4, 6-geranyl-3′,5,5′,7-tetrahydroxy-4′-methoxyflavanone], which “PTP1B type of inhibition” value [1] is on record?
Answer: Mixed TypeⅠ; also recorded: Mixed Type I

Question: And the “KIS (inhibitor binds with enzyme-substrate complex)” value ([1]; PTP1B, secondary plots)?
Answer: 11.2 ± 0.4 µM

Question: And the Ki [1, 3]?
Answer: 5.5 ± 0.3 µM

Question: And the Ki [1, 4]?
Answer: 6.1 ± 0.5 µM

Question: What about the IC50 [1, 5] of the same compound?
Answer: 5.9 ± 0.4 µM

Question: And the “α-Glucosidase type of inhibition” value [2]?
Answer: Noncompetitive

Question: Which IC50 [1] does the source give for `CC(C)=CCC/C(C)=C/Cc1c(O)cc2c(c1O)C(=O)C[C@@H](c1ccc(O)cc1)O2` [Compound 1, mimulone] here?
Answer: 1.9 ± 0.1 µM

Question: What about the Ki ([1]; KI (inhibitor binds with free enzyme), PTP1B, secondary plots, text without unit) of the same compound?
Answer: 0.4 µM

Question: What about the “PTP1B type of inhibition” value [1] of the same compound?
Answer: Mixed TypeⅠ; also recorded: mixed type Ι; also recorded: Mixed Type I

Question: And the Ki ([1]; PTP1B Ki (inhibition constant), from Dixon plots)?
Answer: 0.8 ± 0.1 µM

Question: What about the Vmax ([1]; PTP1B, [I] 0.78 µM) of the same compound?
Answer: 0.012

Question: What about the Kik/Kiv ([1]; PTP1B, [I] 0.78 µM) of the same compound?
Answer: 2.660

Question: And the Vmax ([1]; PTP1B, [I] 1.56 µM)?
Answer: 0.009

Question: And the Kik/Kiv ([1]; PTP1B, [I] 1.56 µM)?
Answer: 3.335

Question: And the Vmax ([1]; PTP1B, [I] 3.13 µM)?
Answer: 0.007

Question: What about the Kik/Kiv ([1]; PTP1B, [I] 3.13 µM) of the same compound?
Answer: 3.694

Question: What about the “KIS (inhibitor binds with enzyme-substrate complex)” value ([1]; PTP1B, secondary plots) of the same compound?
Answer: 2.2 ± 0.1 µM

Question: What about the “KIS (inhibitor binds with enzyme-substrate complex)” value ([1]; PTP1B, secondary plots, text without unit) of the same compound?
Answer: 2.2

Question: And the “reversibility of PTP1B inhibition” value ([1]; initial velocity versus enzyme concentration at different inhibitor concentrations)?
Answer: reversible inhibitor

Question: And the “α-Glucosidase type of inhibition” value [2]?
Answer: Noncompetitive

Question: And the Vmax ([2]; [I] 12.5 µM)?
Answer: 0.117

Question: What about the Kik/Kiv ([2]; [I] 12.5 µM) of the same compound?
Answer: 12.42

Question: What about the Vmax ([2]; [I] 25 µM) of the same compound?
Answer: 0.082

Question: And the Kik/Kiv ([2]; [I] 25 µM)?
Answer: 19.34

Question: What about the Vmax ([2]; [I] 50 µM) of the same compound?
Answer: 0.054

Question: And the Kik/Kiv ([2]; [I] 50 µM)?
Answer: 27.48

Question: With `COc1ccc([C@H]2Oc3cc(O)c(C/C=C(\C)CCC=C(C)C)c(O)c3C(=O)[C@@H]2O)cc1O` [Compound 7, 4′-O-methyldiplacol] as the compound, how does the “PTP1B type of inhibition” value [1] read?
Answer: Mixed TypeⅠ; also recorded: Mixed Type I

Question: What about the “KIS (inhibitor binds with enzyme-substrate complex)” value ([1]; PTP1B, secondary plots) of the same compound?
Answer: 13.7 ± 0.6 µM

Question: What about the Ki [1, 3] of the same compound?
Answer: 6.9 ± 0.4 µM

Question: What about the Ki [1, 4] of the same compound?
Answer: 7.9 ± 0.4 µM

Question: And the IC50 [1, 5]?
Answer: 8.2 ± 0.6 µM

Question: What about the “α-Glucosidase type of inhibition” value [2] of the same compound?
Answer: Noncompetitive

Source: paper PMC6010085, “Inhibition of protein tyrosine phosphatase (PTP1B) and α-glucosidase by geranylated flavonoids from Paulownia tomentosa” (Journal of Enzyme Inhibition and Medicinal Chemistry, 2017)
